Literature values as cited in patent US11389412B2, “Curcuminoid chlorophyllin (CHL) compositions and methods of preparation and use” (InovoBiologic Inc., priority 2017, dated 2022).

Conditions: composition of curcuminoid mixture and essential oil arturmerone, U.S. Pat. No. 7,883,728

Question: Which “bioavailability of curcumin in human, maximum” value does the source give for `COc1cc(C=CC(=O)CC(=O)C=Cc2ccc(O)c(OC)c2)ccc1O` [curcumin, 1,7bis (4-hydroxy-3-methoxy phenyl)-1,6 heptadiene-3,5-dione] here?
Answer: Its value is “about 93 ng/g”.
